In ChEMBL document CHEMBL4387750, “Backbone modifications in peptidic inhibitors of flaviviral proteases” (Bioorg Med Chem Lett, 2019):
Where a SMILES comes first, the peptide text is derived from it. [ ]: non-standard residue; d: D form. The star is where a group is joined. dPhg = N[C@@H](C(=O)O)c1ccccc1; Phg = N[C@H](C(=O)O)c1ccccc1; Bz = O=C(c1ccccc1)*

Assays:
Trypsin [1] = target: T1, Trypsin (Homo sapiens, UniProt P07477+P07478+P35030); test: Inhibition of trypsin (unknown origin) at 50 uM preincubated with protein for 15 mins followed by boc-Val-Pro-Arg-AMC substrate addition and measured by continuous fluorometric analysis relative to control; type: protein assay
[2] = target: Genome polyprotein (dengue virus type 2) (UniProt P29990); test: Inhibition of Dengue virus serotype 2 NS2B-NS3 protease at 50 uM preincubated with protein for 15 mins followed by Abz-Nle-Lys-Arg-Arg-Ser-3-(NO2)Tyr substrate addition and measured by continuous fluorometric analysis relative to control
[3] = target: Prothrombin (Homo sapiens) (UniProt P00734); test: Inhibition of human thrombin at 25 uM preincubated with protein for 15 mins followed by boc-Val-Pro-Arg-AMC substrate addition and measured after 10 mins by continuous fluorometric analysis relative to control
[4] = target: Genome polyprotein (West Nile virus) (UniProt P06935); test: Inhibition of West Nile virus NS2B-NS3 protease preincubated with protein for 15 mins followed by Abz-Gly-Leu-Lys-Arg-Gly-Gly-3-(NO2)-Tyr substrate addition and measured by continuous fluorometric analysis relative to control; set-up: concentration or dose not given beside the values
Genome polyprotein [5] = target: Genome polyprotein (dengue virus type 2, UniProt P29990); test: Inhibition of Dengue virus serotype 2 NS2B-NS3 protease preincubated with protein for 15 mins followed by Abz-Nle-Lys-Arg-Arg-Ser-3-(NO2)Tyr substrate addition and measured by continuous fluorometric analysis
Genome polyprotein [6] = target: Genome polyprotein (West Nile virus, UniProt P06935); test: Inhibition of West Nile virus NS2B-NS3 protease preincubated with protein for 15 mins followed by Abz-Gly-Leu-Lys-Arg-Gly-Gly-3-(NO2)-Tyr substrate addition and measured by continuous fluorometric analysis
[7] = Metabolic stability in Sprague-Dawley rat liver microsomes assessed as compound degradation by measuring half life incubated for 120 mins by HPLC and UV analysis; type: ADME, Microsome; conditions: for Stability: microsomes, 2 h
[8] = Metabolic stability assessed as alpha-chymotrypsin (unknown origin)-mediated drug degradation by measuring half life in pH 7.4 phosphate buffer incubated up to 60 mins at 37 degC by HPLC and UV analysis; type: ADME; conditions: human; for Stability: buffer, pH 7.4, 1 h
Trypsin [9] = target: T1, Trypsin; test: Metabolic stability assessed as trypsin (unknown origin)-mediated drug degradation by measuring half life in pH 7.5 Tris buffer incubated up to 60 mins at 37 degC by HPLC and UV analysis; type: ADME, protein assay; conditions: pH 7.5, 1 h
[10] = Metabolic stability in Sprague-Dawley rat liver microsomes assessed as compound remaining after 120 mins by HPLC and UV analysis; type: ADME, Microsome; conditions: read-out: Stability

Genome polyprotein (West Nile virus), sequence (P06935 whole entry): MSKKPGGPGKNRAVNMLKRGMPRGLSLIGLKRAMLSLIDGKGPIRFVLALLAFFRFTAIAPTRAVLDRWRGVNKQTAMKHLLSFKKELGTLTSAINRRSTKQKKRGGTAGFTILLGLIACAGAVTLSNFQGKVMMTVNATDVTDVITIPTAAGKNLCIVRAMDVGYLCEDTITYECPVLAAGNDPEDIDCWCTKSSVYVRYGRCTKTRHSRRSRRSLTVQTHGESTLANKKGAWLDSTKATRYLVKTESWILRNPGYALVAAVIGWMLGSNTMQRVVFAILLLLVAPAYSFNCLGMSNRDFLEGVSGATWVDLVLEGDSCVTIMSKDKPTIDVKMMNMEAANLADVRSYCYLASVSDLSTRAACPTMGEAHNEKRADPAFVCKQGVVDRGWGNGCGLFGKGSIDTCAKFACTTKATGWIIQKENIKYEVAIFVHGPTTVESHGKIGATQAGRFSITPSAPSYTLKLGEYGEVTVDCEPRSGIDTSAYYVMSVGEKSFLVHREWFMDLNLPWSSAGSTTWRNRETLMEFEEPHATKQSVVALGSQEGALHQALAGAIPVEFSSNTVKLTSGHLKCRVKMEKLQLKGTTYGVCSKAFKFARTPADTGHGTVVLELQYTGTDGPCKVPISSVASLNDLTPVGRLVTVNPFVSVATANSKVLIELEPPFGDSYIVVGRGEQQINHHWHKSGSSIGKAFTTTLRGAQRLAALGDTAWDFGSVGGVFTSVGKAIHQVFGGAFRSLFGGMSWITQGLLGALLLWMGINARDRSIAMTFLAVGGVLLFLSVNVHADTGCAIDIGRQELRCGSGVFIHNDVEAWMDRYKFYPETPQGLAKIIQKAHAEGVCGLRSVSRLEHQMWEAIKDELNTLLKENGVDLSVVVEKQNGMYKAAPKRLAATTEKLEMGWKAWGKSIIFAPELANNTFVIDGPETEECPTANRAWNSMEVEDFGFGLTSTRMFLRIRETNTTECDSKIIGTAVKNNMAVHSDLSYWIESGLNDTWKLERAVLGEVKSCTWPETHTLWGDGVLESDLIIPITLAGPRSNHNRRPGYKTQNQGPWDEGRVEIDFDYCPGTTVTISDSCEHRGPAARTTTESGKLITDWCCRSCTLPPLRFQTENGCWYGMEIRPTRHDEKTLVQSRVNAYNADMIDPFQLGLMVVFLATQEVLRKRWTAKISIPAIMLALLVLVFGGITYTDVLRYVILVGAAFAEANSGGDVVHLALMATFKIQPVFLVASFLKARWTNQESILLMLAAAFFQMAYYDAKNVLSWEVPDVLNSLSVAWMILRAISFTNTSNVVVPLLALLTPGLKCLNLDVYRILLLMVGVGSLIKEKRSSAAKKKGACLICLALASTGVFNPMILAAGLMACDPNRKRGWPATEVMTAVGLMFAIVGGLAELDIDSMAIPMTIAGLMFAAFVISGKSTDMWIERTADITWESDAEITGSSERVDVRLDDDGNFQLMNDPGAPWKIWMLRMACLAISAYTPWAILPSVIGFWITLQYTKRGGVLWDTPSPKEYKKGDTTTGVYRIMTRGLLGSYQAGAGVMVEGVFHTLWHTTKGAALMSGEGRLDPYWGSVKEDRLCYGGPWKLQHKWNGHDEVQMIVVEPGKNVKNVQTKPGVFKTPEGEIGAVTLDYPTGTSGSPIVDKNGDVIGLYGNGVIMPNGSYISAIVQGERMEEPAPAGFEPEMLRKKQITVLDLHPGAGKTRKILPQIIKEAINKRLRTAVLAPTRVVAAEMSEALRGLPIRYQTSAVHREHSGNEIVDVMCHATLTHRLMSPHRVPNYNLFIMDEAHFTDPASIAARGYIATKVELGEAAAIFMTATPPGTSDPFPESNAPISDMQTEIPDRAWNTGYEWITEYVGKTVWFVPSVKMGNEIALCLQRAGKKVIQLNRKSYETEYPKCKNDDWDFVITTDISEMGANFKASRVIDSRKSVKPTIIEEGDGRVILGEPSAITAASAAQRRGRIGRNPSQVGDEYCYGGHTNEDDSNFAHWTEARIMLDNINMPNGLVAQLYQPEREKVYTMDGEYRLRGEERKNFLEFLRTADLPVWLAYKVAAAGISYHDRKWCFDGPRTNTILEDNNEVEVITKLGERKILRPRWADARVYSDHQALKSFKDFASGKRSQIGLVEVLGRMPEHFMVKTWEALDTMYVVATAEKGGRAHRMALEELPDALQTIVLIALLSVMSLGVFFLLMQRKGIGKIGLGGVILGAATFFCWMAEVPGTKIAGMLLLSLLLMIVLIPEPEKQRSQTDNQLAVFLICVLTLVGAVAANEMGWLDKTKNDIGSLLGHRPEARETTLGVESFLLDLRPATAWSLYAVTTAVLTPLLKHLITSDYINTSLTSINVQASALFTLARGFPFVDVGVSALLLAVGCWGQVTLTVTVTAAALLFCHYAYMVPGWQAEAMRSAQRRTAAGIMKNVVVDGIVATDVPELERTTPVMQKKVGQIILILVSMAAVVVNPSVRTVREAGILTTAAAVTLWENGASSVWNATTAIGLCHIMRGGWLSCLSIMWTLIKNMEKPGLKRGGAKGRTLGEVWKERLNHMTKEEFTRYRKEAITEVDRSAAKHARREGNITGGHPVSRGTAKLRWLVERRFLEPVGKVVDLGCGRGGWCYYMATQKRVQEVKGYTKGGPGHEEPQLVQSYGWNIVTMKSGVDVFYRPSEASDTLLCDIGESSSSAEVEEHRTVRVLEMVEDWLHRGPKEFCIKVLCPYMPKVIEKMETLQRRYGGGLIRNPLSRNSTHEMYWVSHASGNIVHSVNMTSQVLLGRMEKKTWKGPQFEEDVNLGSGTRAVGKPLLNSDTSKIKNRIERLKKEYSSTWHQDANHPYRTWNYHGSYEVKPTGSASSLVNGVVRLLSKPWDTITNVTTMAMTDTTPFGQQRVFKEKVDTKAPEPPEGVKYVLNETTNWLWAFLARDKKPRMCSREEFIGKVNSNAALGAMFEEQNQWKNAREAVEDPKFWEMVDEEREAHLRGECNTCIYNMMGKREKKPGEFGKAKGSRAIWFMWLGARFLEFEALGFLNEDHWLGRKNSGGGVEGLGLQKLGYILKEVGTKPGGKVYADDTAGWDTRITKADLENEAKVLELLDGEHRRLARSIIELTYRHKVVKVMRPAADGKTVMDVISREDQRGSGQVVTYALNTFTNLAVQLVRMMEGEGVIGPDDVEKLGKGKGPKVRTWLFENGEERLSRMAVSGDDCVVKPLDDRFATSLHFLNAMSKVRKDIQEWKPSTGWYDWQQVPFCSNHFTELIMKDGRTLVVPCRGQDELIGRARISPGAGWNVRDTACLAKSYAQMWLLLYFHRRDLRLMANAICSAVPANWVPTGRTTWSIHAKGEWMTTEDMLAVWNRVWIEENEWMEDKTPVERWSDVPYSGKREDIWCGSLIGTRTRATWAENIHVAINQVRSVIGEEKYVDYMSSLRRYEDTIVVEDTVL
Genome polyprotein (West Nile virus, UniProt P06935), sequence (P06935 1371-1501 limits assumed): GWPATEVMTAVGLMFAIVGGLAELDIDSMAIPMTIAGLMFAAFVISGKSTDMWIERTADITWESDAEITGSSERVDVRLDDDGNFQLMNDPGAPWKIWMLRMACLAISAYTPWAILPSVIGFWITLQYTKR
Genome polyprotein (West Nile virus, UniProt P06935), sequence (P06935 1502-2120 limits assumed): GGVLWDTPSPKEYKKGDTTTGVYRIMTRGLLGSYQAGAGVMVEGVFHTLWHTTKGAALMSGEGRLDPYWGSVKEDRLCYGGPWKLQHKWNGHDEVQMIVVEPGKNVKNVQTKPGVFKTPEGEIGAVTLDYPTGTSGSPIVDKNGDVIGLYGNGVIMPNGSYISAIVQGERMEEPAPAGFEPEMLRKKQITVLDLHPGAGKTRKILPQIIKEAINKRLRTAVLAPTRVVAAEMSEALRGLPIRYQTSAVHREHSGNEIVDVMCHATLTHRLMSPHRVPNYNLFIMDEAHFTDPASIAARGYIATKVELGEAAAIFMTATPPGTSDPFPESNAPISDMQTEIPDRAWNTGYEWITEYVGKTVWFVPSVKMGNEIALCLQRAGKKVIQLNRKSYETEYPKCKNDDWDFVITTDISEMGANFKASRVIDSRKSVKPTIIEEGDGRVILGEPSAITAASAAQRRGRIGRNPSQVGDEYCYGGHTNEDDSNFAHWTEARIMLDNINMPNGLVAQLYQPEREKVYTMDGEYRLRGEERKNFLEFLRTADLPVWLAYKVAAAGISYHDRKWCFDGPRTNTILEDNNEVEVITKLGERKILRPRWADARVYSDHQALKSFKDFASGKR

| Structure (SMILES) | inhibition (Trypsin [1]) [%] | inhibition [2] [%] | inhibition [3] [%] | inhibition [4] [%] | IC50 (Genome polyprotein [5]) [µM] | IC50 (Genome polyprotein [6]) [µM] | Stability [7] | Stability [8] | Stability (Trypsin [9]) | remaining at 2 h [10] [%] | half-life ([8]; alpha-chymotrypsin in phosphate buffer, pH 7.4) [min] | half-life ([7]; Sprague-Dawley, liver microsomes) [min] |
| --- | --- | --- | --- | --- | --- | --- | --- | --- | --- | --- | --- | --- |
| CN(C(=O)[C@H](CCCNC(=N)N)NC(=O)c1ccccc1)[C@@H](CCCCN)C(=O)N[C@@H](C(N)=O)c1ccccc1 | < 5 | 36.3 | < 5 | < 5 |  |  |  |  |  |  |  |  |
| N=C(N)NCCC[C@H](NC(=O)c1ccccc1)C(=O)N(CCCCN)CC(=O)N[C@@H](C(N)=O)c1ccccc1 | 10.6 | < 5 | < 5 | 18.4 |  |  |  |  |  |  |  |  |
| N=C(N)NCCC[C@H](NC(=O)c1ccccc1)C(=O)N[C@@H](CCCCN)C(=O)NC(C(N)=O)(c1ccccc1)c1ccccc1 | 45.5 | 20.6 | < 5 | 33.3 |  |  |  |  |  |  |  |  |
| N=C(N)NCCC[C@H](NC(=O)c1ccccc1)C(=O)N[C@@H](CCCCN)CC(=O)N(CC(N)=O)c1ccccc1 | < 5 | 22.7 | < 5 | 17.7 |  |  |  |  |  |  |  |  |
| CN(C(=O)c1ccccc1)[C@@H](CCCNC(=N)N)C(=O)N[C@@H](CCCCN)C(=O)N[C@@H](C(N)=O)c1ccc(OCc2ccccc2)cc1 | < 5 | 97.8 | 5.5 | 92 | 1.6 | 7.1 | Stable |  |  |  |  |  |
| N=C(N)NCCC[C@H](NC(=O)c1ccccc1)C(=O)N[C@@H](CCCCN)C(=O)N[C@H](C(N)=O)c1ccccc1 (Bz-Arg-Lys-[Phg]-NH2) | < 5 | 95 | < 5 |  | 3.3 |  |  |  |  |  |  |  |
| CN(C(=O)c1ccccc1)[C@@H](CCCNC(=N)N)C(=O)N[C@@H](CCCCN)C(=O)N[C@@H](C(N)=O)c1ccccc1 | < 5 | 93.6 | < 5 | 48.4 | 3.6 |  | Stable | Stable | Stable |  |  |  |
| N=C(N)NCCC[C@H](NC(=O)c1ccccc1)C(=O)N[C@@H](CCCCN)C(=O)N(CC(N)=O)c1ccccc1 | < 5 | 28.9 | < 5 | 19.8 |  |  |  |  |  |  |  |  |
| N=C(N)NCCC[C@H](N[C@@H](c1ccccc1)C(F)(F)F)C(=O)N[C@@H](CCCCN)C(=O)N[C@@H](C(N)=O)c1ccccc1 | < 5 | 32.1 | < 5 | 6 |  |  |  |  |  |  |  |  |
| N=C(N)NCCC[C@H](N[C@H](c1ccccc1)C(F)(F)F)C(=O)N[C@@H](CCCCN)C(=O)N[C@@H](C(N)=O)c1ccccc1 | < 5 | 43.7 | < 5 | 24.6 |  |  |  |  |  |  |  |  |
| CCC(NC(=O)[C@H](CCCCN)NC(=O)[C@H](CCCNC(=N)N)NC(=O)c1ccccc1)(C(N)=O)c1ccccc1 (stereo partly drawn) | 8.7 | 35.2 | < 5 | 12.1 |  |  |  |  |  |  |  |  |
| N=C(N)NCCC[C@H](NC(=O)c1ccccc1)C(=O)N[C@@H](CCCCN)CC(=O)N[C@@H](C(N)=O)c1ccccc1 | < 5 | 31.8 | < 5 | 14.6 |  |  |  |  |  |  |  |  |
| CN(C(=O)[C@H](CCCCN)NC(=O)[C@H](CCCNC(=N)N)NC(=O)c1ccccc1)[C@@H](C(N)=O)c1ccccc1 | < 5 | 33 | < 5 | 36.7 |  |  |  |  |  |  |  |  |
| CC(NC(=O)[C@H](CCCCN)NC(=O)[C@H](CCCNC(=N)N)NC(=O)c1ccccc1)(C(N)=O)c1ccccc1 (stereo partly drawn) | < 5 | 97.8 | 9.1 | 59.8 | 1.3 | 24.3 |  |  |  |  |  |  |
| C[C@@](NC(=O)[C@H](CCCCN)NC(=O)[C@H](CCCNC(=N)N)NC(=O)c1ccccc1)(C(N)=O)c1ccccc1 | 20.7 | 81.7 | < 5 | 47.4 | 9.5 |  |  |  |  |  |  |  |
| N=C(N)NCCCN(CC(=O)N[C@@H](CCCCN)C(=O)N[C@@H](C(N)=O)c1ccccc1)C(=O)c1ccccc1 | < 5 | 32.7 | < 5 | 12.4 |  |  |  |  |  |  |  |  |
| N=C(N)NCCC[C@@H](NC(=O)[C@@H](N)Cc1ccc(O)cc1)C(=O)N[C@@H](Cc1ccccc1)C(=O)N[C@@H](Cc1ccccc1)C(N)=O (H-Y[dR]FF-NH2) |  |  |  |  |  |  |  | Unstable | Stable | 85 |  |  |
| N=C(N)NCCC[C@H](NC(=O)c1ccccc1)C(=O)N[C@@H](CCCCN)C(=O)N[C@@H](C(N)=O)c1ccc(OCc2ccccc2)cc1 | 18.4 | 100 | 7.8 | 101 | 0.4 | 0.8 | Stable |  | Stable |  |  |  |
| N=C(N)NCCC[C@H](NC(=O)c1ccccc1)C(=O)N[C@@H](CCCCN)C(=O)N[C@@H](C(N)=O)c1ccccc1 (Bz-Arg-Lys-[dPhg]-NH2) | 12.5 | 99.3 | < 5 | 99 | 3.8 | 3.8 | Stable |  | Stable |  | 11 |  |
| N=C(N)NCCC[C@H](NC(=O)C(=O)c1ccccc1)C(=O)N[C@@H](CCCCN)C(=O)N[C@@H](C(N)=O)c1ccccc1 | 33.5 | 94 | < 5 | 43.2 | 4.1 |  |  |  |  |  |  |  |
| CN(C(=O)c1ccccc1)[C@@H](CCCNC(=N)N)C(=O)N[C@@H](CCCCN)C(=O)N[C@@](C)(C(N)=O)c1ccccc1 | 10.9 | 93.9 | < 5 | 50.8 | 3 |  |  |  |  |  |  |  |
| C[C@](NC(=O)[C@H](CCCCN)NC(=O)[C@H](CCCNC(=N)N)NC(=O)c1ccccc1)(C(N)=O)c1ccccc1 | 11.8 | 99.1 | 6.5 | 82.5 | 0.6 | 14.3 | Stable | Stable | Stable |  |  |  |
| C[C@]12CC[C@H]3[C@@H](CCC4=CC(=O)CC[C@@]43C)[C@@H]1CC[C@@H]2O [TESTOSTERONE] |  |  |  |  |  |  |  |  |  |  |  | 9 to 35 |
| N=C(N)NCCC[C@H](NC(=O)c1ccccc1)C(=O)N[C@@H](CCCCN)C(=O)N[C@@H](CC(N)=O)c1ccccc1 | 7.5 | 17.6 | < 5 | 12.6 |  |  |  |  |  |  |  |  |
